Laboratory results taken from patent US20220409590A1, “CHEMOTHERAPY FOR GLIOMA THROUGH NEURONAL CONVERSION” (The Penn State Research Foundation, priority 2019, published 2022).

Tested on: U251 cells
Assay: Reprogramming of U251 cells; doublecortin immunostaining
Format: cell-based, human
Protocol: U251 cells were maintained in minimal essential media (MEM) supplemented with 2 mM glutamine, 1% non-essential amino acids, 1 mM sodium pyruvate, and 10% fetal bovine serum. Fifty thousand cells were seeded on to coverslips into 24-well plates. After 4 days in MEM, the cells were treated with the compound cocktail or dimethyl sulfoxide for another 4 days in Ham's F-12 (F-12) media supplemented with N2, B27 and insulin. The five-compound cocktail, referred to as described above as SLCDS, contained 5 μM SB431542, 0.25 μM LDN193189, 5 μM CHIR99021, 5 μM DAPT, and 40 μM SKL2001. After SLCDS treatment, F-12 media was changed every 4 days for 12 days. Cells were then crosslinked with 4% paraformaldehyde for 12 minutes and washed with Tris buffered saline (TBS). After three 5-minute washes, cells were blocked with 2.5% bovine serum albumin in Tris-buffered saline (TBS) with 0.1% Triton X-100 (TBSTx) for 1 hour. Primary antibody (goat Doublecortin, 1:500 dilution, sc-8066, Santa Cruz) were incubated with fixed cells overnight at 4° C. After three 5-minute washes, the secondary antibody (anti-goat Cy5, 1:1000) was incubated with fixed cells overnight at 4° C. After three 5-minute washes, the cover slip was mounted using mounting media. The fluorescent signal was detected using an ECHO Revolve microscope.

O=C(NCCCn1ccnc1)c1cc(-c2ccco2)on1 [SKL2001]
dose response of doublecortin expression (SKL2001 in combination with SB431542, LDN193189, CHIR99021 and DAPT in U251 cells, FIG. 2): dose-response relationship is established
conversion of U251 glioblastoma cells to neuronal cells (as evidenced by doublecortin expression): efficient conversion
